Experimental data reported in patent US4386073A, “Tripeptides acting on the central nervous system and a process for the preparation thereof” (Patentbureau DANUBIA, priority 1979, dated 1983).
Where a SMILES comes first, the peptide text is derived from it. [ ]: non-standard residue; d: D form. d(pGlu) = O=C1CC[C@H](C(=O)O)N1

What was measured:
[1] = test system: Haloperidol-induced catalepsy; assay: Inhibition of Haloperidol-induced catalepsy on rats; type: in vivo, rat (male Wistar); settings: Haloperidol 40 mg/kg s.c., test compound i.v. 120 min later, probit analysis, at the time given
Experimental: (1) Inhibition of Haloperidol-induced catalepsy on rats (see J. Delay and P. Deniker: Compt. Rend. Congr. Med. Alenistes Neurologistes, 19, 497, Luxembourg, 1952)
The tests were performed on male Wistar rats weighing 160 to 180 g.
40 mg/kg of 4-(p-chlorophenyl)-1-(3-/p-fluorobenzoyl/-propyl)-piperidin-4-ol (Haloperi dol) were administered subcutaneously into the animals, and 120 minutes after this treatment the animals were checked for the appearance of catalepsy. The rats were divided into groups of 10 animals each, and treated intravenously with TRH or the new TRH analogues. The animals belonging to the control group received physiological saline. The catalepsy-suspending effects of the individual compounds were determined 15, 30, 60, 90 and 120 minutes after the treatment. The animals that had not changed their position for 30 seconds after placing their fore-paw onto a 7 cm high column were regarded as cataleptic.

[2] = test system: hexobarbital-induced sleeping; assay: Influencing the duration of sleeping caused by hexobarbital; type: in vivo; settings: mice, hexobarbital sodium 60 mg/kg i.v., compound 20 mg/kg i.p. 10 min later; control sleeping 38.4 ± 1.36 min
Experimental: (4) Influencing the duration of sleeping caused by hexobarbital The tests were performed on groups of 10 male mice each. The animals were treated intravenously with 60 mg/kg of hexobarbital sodium ([…]®; Bayer), and 10 minutes later 20 mg/kg of TRH or a tripeptide under examination were administered intraperitoneally into the animals. The sleeping times of the animals were recorded, averages were calculated for the individual groups, and the results were expressed as percents related to the control group.

[3] = test system: L-Dopa-induced locomotive activity; assay: Potentiation of locomotive activity induced on mice by L-Dopa; type: in vivo; settings: compound 20 mg/kg i.p., percent related to TRH; for Potentiation of the locomotive effect of L-Dopa, % after 30': Pargyline 40 mg/kg i.p., L-Dopa 100 mg/kg i.p., 30 min; for Potentiation of the locomotive effect of L-Dopa, % after 60': 60 min; for Potentiation of the locomotive effect of L-Dopa, % after 90': 90 min
Experimental: (2) Potentiation of locomotive activity induced on mice by L-Dopa (see The Thyroid Axis, Drugs and Behavior, p. 116, A. J. Prage Jr., Raven Press, New York, 1974)
The tests were performed on groups of 15 male mice each, weighing 18 to 22 g.
First, the animals were treated intraperitoneally with 40 mg/kg of N-methyl-N-propargyl-benzylamine (Pargyline), and then an intraperitoneal dosage of 20 mg/kg of TRH or a TRH-analogue was introduced, followed by an intraperitoneal dosage of 100 mg/kg of L-Dopa. The locomotive activity of the animals was recorded 30, 60 and 90 minutes after this treatment, and the level of potentiation was expressed in percents related to the results observed with TRH.

[4] = test system: Reserpine hypothermy; assay: Reserpine hypothermy-reversing effect on mice; type: in vivo; settings: average of 10 animals; for Reserpine hypothermy reversing effect, rectal temperature obs. time 1 h: 1 hour after 20 mg/kg of the tripeptide; for Reserpine hypothermy reversing effect, rectal temperature obs. time 2 h: 2 hours after 20 mg/kg of the tripeptide; for Reserpine hypothermy reversing effect, rectal temperature res.: 16 hours after reserpine 5 mg/kg i.p., before the tripeptide; for Reserpine hypothermy reversing effect, rectal temperature norm.: baseline prior to administration of reserpine
Experimental: (3) Reserpine hypothermy-reversing effect on mice (see B. M. Askew: Life Sci. 2, 725-730/1963/)
The tests were performed on groups of 10 male mice each, weighing 18 to 22 g. Reserpine was administered into the animals in an intraperitoneal dosage of 5 mg/kg, and 16 hours later the animals were treated with 20 mg/kg of TRH or a tripeptide under examination.
The rectal temperature of the animals was measured prior to the administration of reserpine (marked by "norm." in Table 1), 16 hours after the administration of reserpine (marked by "res." in Table 1), furthermore 1 and 2 hours after the administration of the tripeptide (marked by "obs.time" in Table 1). The data listed in Table 1 are the averages of the temperatures observed on the 10 animals.

[5] = test system: TSH; assay: Hormonal activity (TSH effect) on rats; type: in vivo, rat (male Wistar); settings: 20 mg/kg i.v., plasma TSH by radioimmune assay 15 min after treatment, relative activity, TRH = 100%
Experimental: (6) Hormonal activity (TSH effect) on rats
The tests were performed on groups of 7 or 8 male Wistar rats each, weighing 200 g. The animals were treated intravenously with 20 mg/kg of TRH or a tripeptide under examination. The TSH reaction of the animals was evaluated 15 minutes after this treatment, by subjecting the blood plasma to radioimmune assay. The relative activities were calculated by the four-point method using a TPA 101 computer, and the activity of TRH was regarded as 100%.

[6] = test system: ethanol-induced sleeping; assay: Ethanol narcosis; type: in vivo, CFLP (LATI) mice; settings: mice, ethanol 4.5 g i.p., compound 20 mg/kg i.p. 10 min later; control sleeping 46.9 ± 2.17 min
Experimental: (5) Ethanol narcosis (see J. M. Cott et al.: J. Pharm. Exp. Ther. 196, 594/1976/) The tests were performed on groups of 20 CFLP (LATI) mice of both sexes, each weighing 18 to 22 g. 4.5 g of ethanol were introduced intraperitoneally into the animals, and 10 minutes later the animals were treated intraperitoneally with 20 mg/kg of the tripeptide under examination. The sleeping periods of the animals were recorded, averages were calculated for the individual groups, and the results were expressed as percents related to the control group.

Compound | Inhibition of Haloperidol catalepsy ED50 [1] [mg/kg] | Decrease of sleeping period (% related to the control animals), Hexobarb. [2] [%] | Potentiation of the locomotive effect of L-Dopa, % after 30' [3] [%] | Potentiation of the locomotive effect of L-Dopa, % after 60' [3] [%] | Potentiation of the locomotive effect of L-Dopa, % after 90' [3] [%] | Reserpine hypothermy reversing effect, rectal temperature obs. time 1 h [4] [°C] | Reserpine hypothermy reversing effect, rectal temperature obs. time 2 h [4] [°C] | Reserpine hypothermy reversing effect, rectal temperature res. [4] [°C] | Reserpine hypothermy reversing effect, rectal temperature norm. [4] [°C] | TSH effect [5] [%] | Decrease of sleeping period (% related to the control animals), Ethanol [6] [%]
CC(C)C[C@H](NC(=O)[C@H]1CCC(=O)N1)C(=O)N1CCC[C@H]1C(N)=O [D-Glp Leu Pro, D-Pyroglutamyl-L-leucyl-L-prolinamide] ([d(pGlu)]-Leu-Pro-NH2) | 70 | 97 | 54 | 58 | 115 | 25.8 | 25.6 | 27.4 | 36.5 | 0 | 54
CC(C)C[C@H](NC(=O)C1CNC(=O)N1)C(=O)N1CCC[C@H]1C(N)=O (stereo partly drawn) [Kic Leu Pro, L-2-Ketoimidazolidine-4-carbonyl-L-leucyl-L-prolinamide] | 80 | 59 | 118 | 70 | 98 | 27.7 | 28.8 | 24.1 | 35.5 | 0 | 69
CC(C)C[C@H](NC(=O)C1CCCC(=O)N1)C(=O)N1CCC[C@H]1C(N)=O (stereo partly drawn) [Kpc Leu Pro, L-6-ketopiperidine-2-carbonyl-L-leucyl-L-prolinamide] | 23.5 | 37 | 319 | 80 | 127 | 32.0 | 33.9 | 24.5 | 36.3 | 2.7 | 79
CCC[C@H](NC(=O)C1CCCC(=O)N1)C(=O)N1CCCC[C@H]1C(N)=O (stereo partly drawn) [Kpc Nva HPro, L-6-Ketopiperidine-2-carbonyl-L-norvalyl-L-homoprolinamide] | 35.3 | 76 | 63 | 30 | 108 | 26.5 | 32.2 | 20.7 | 36.3 | – | 35
CCC[C@H](NC(=O)C1CCCC(=O)N1)C(=O)N1CCC[C@H]1C(N)=O (stereo partly drawn) [Kpc Nva Pro, L-6-Ketopiperidine-2-carbonyl-L-norvalyl-L-prolinamide] | 10.6 | 51 | 36 | 45 | 65 | 33.1 | 32.5 | 23.9 | 36.3 | 0 | 46
NC(=O)[C@@H]1CCCN1C(=O)[C@H](Cc1c[nH]cn1)NC(=O)[C@@H]1CCC(=O)N1 [TRH, L-pyroglutamyl-L-histidyl-L-prolinamide, reference compound] | 80 | 56 | – | 100 | 100 | 35.5 | – | – | – | – | 35
